Measured values as given in US4806532A, “Inhibition of epithelial phosphate transport” (Mayo Foundation for Medical Education and Research, priority 1985, dated 1989).
Structures can show the parent of a compound that is named as a salt.

What was measured:
Na-Pi cotransporter [1] = target: T1, Na-Pi cotransporter (Mus musculus, UniProt Q60825); test: Na+-gradient-dependent 32Pi uptake by renal BBMV, mouse; assay type: biochemical
T1 construct: were prepared from renal cortices of mongrel dogs, albino mice and New Zealand albino rabbits; from tissue; host or cells: albino mouse renal cortex, brush border membrane vesicles
T1 sequence (Q60825 1-637): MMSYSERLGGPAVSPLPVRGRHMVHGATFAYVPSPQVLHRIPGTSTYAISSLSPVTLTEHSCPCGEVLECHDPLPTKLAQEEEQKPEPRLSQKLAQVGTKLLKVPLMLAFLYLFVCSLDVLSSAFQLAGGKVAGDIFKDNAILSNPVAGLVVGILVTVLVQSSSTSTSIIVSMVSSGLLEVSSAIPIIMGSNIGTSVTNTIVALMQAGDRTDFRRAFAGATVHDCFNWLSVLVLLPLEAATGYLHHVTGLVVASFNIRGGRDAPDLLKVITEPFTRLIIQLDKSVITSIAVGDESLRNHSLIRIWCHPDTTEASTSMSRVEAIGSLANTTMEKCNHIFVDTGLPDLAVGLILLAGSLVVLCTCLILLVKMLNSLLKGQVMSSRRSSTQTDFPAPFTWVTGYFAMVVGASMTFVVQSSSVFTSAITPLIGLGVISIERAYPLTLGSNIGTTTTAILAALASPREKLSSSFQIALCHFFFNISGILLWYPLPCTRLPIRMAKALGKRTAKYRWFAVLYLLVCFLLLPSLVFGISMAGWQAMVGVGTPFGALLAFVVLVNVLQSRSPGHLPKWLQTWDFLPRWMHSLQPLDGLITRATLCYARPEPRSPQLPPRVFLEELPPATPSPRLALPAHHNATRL
Description: (§1) The brush border membrane vesicles (BBMV) were prepared from renal cortical tissue of adult male Sprague-Dawley rats of an average body weight of about 220 grams. Rats were fed ad libitum standard rat chow containing 0.7% Pi and had free access to distilled water. Rats were sacrificed under anesthesia and dissected renal cortical tissue was used for preparation of BBMV fraction by the divalent cation-precipitation procedure, employed and described in detail in J. Clin. Invest., 67, 1347 (1981) and J. Biol. Chem., 258, 5695 (1983), with the following modifications: (a) MgCl2 instead of CaCl2 was added to crude homogenate (final concentration 10 mM MgCl2) to precipitate membranes other than BBMV; (b) in the final step, BBMV were washed and equilibrated in a medium of pH=7.5, instead of pH=8.5. The enrichment and specific activities of typical BBM enzymes alkaline phosphatase (APases), γ-glutyamyl transferase (γ-GTT), leucineaminopeptidase (LAP) and maltase with use of these modifications were similar as in BBMV fractions prepared in our previous studies. As a final step in the preparative procedure, the BBMV fraction was washed and resuspended in a medium containing 300 mM mannitol and 5 mM Tris-HEPES adjusted to pH=t.5, referred to as "MTH-medium," unless specified otherwise. The analogous BBMV fractions, using the same procedure, were prepared from renal cortices of mongrel dogs, albino mice and New Zealand albino rabbits.
(§2) The BBMV uptake of ^32 Pi, D-[^3 H]-glucose, L-[^3 H]-proline and ^22 Na^+ was measured by means of a rapid filtration technique, as described in J. Clin. Invest., 67, 1347 (1981) and Am. J. Physiol., 246, F133-F139 (1984). Also, unless specified otherwise, the medium for the solute uptake assay consisted of following compounds (in final concentrations): 100 mM mannitol, 100 mM NaCl (or 100 mM KC1) and 5 mM Tris-HEPES (pH=7.5) and eitehr 0.1 mM K2 H^32 PO4, or 0.05 mM D-[^3 H]-glucose, or 0.025 mM L-[^3 H]-proline. IN the ^22 Na^+ uptake studies, the assay medium contained 100 mM ^22 NaCl (^22 NaCl about […] per tube), 100 mM mannitol and 5 mM Tris-HEPES (pH 7.5).
(§3) In most experiments, the Na^+ -gradient-dependent ^32 Pi uptake in the concentrative "uphill" phase was measured at 20 seconds period. Since Na^+ -independent Pi uptake in this time period was quantitatively minor component (<5%) of the Na^+ -gradient-dependent Pi uptake, it was not routinely subtracted.

[2] = in vivo; cited from earlier work
[3] = tested on: L-[^3 H]-proline uptake by BBMV; test: Na+-gradient-dependent uptake of L-[3H]-proline by renal BBMV; assay type: biochemical, rat; conditions: 1 mM TPFA; mean ± SEM, n=4; control 43±3
Description: as §1, with “As a final step in the preparative procedure, the BBMV fraction was washed and resuspended in a medium containing 300 mM mannitol and 5 mM Tris-HEPES adjusted to pH=t.5, referred to as "MTH-medium," unless specified otherwise. The analogous BBMV fractions, using the same procedure, were prepared from renal cortices of mongrel dogs, albino mice and New Zealand albino rabbits.” left out
(§4) The BBMV uptake of ^32 Pi, D-[^3 H]-glucose, L-[^3 H]-proline and ^22 Na^+ was measured by means of a rapid filtration technique, as described in J. Clin. Invest., 67, 1347 (1981) and Am. […]

Na-Pi cotransporter [4] = target: T2, Na-Pi cotransporter (Oryctolagus cuniculus, UniProt Q28620); test: Na+-gradient-dependent 32Pi uptake by renal BBMV, rabbit; assay type: biochemical
T2 construct: were prepared from renal cortices of mongrel dogs, albino mice and New Zealand albino rabbits; from tissue; host or cells: New Zealand albino rabbit renal cortex, brush border membrane vesicles
T2 sequence (Q28620 1-642): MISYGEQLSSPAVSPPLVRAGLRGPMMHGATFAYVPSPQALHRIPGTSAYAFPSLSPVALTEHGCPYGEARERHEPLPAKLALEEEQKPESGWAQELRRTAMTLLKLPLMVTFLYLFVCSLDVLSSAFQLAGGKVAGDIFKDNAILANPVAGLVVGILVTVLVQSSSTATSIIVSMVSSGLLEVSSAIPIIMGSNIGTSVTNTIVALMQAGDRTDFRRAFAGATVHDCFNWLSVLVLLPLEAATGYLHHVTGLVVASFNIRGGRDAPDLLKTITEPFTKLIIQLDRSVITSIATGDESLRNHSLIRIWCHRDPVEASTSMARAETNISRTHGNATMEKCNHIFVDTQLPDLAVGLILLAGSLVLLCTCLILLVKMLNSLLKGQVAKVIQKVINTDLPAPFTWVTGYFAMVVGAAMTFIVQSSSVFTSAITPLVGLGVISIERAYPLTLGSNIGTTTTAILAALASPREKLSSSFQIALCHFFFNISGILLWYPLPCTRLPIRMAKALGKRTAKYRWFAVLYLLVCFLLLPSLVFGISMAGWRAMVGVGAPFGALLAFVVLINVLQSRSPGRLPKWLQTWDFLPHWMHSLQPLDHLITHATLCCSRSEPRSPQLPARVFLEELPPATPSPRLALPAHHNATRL
Description: as §1, §2, §3

(Na-K)ATPase = target: T3, (Na-K)ATPase (Rattus norvegicus, UniProt P06685); test: Effect on BaLM enzyme (Na-K)ATPase (data not shown); assay type: biochemical
T3 construct: from tissue; host or cells: basolateral membrane, kidney (tissue and rat inferred)

[5] = tested on: D-[^3 H]-glucose uptake by BBMV; test: Na+-gradient-dependent uptake of D-[3H]-glucose by renal BBMV; assay type: biochemical, rat; conditions: 1 mM TPFA; mean ± SEM, n=4; control 66±15
Description: as §1, with “As a final step in the preparative procedure, the BBMV fraction was washed and resuspended in a medium containing 300 mM mannitol and 5 mM Tris-HEPES adjusted to pH=t.5, referred to as "MTH-medium," unless specified otherwise. The analogous BBMV fractions, using the same procedure, were prepared from renal cortices of mongrel dogs, albino mice and New Zealand albino rabbits.” left out
as §4

[6] = 20 s, 1 mM TPFA, read-out: percent decrease of 20 sec 32Pi-uptake relative to control value
[7] = 20 s, 5 mM TPFA, read-out: percent decrease of 20 sec 32Pi-uptake relative to control value

For `O=C(O)P(=O)(O)O` [TPFA, Phosphonoformic acid, trisodium salt hexahydrate], the “32Pi-uptake 120 min” value (Na-Pi cotransporter [1]; 1 mM TPFA, control 368 ± 7) was 390 ± 74 pmoles Pi/mg protein/time, the “32Pi-uptake 20 sec” value (Na-Pi cotransporter [1]; 1 mM TPFA, control 824 ± 9) was 299 ± 8 pmoles Pi/mg protein/time and the “32Pi-uptake 20 sec” value (Na-Pi cotransporter [1]; 5 mM TPFA) was 97 ± 7 pmoles Pi/mg protein/time. The “32Pi-uptake 120 min” value (Na-Pi cotransporter [1]; 5 mM TPFA) was 404 ± 12 pmoles Pi/mg protein/time, the inhibition at 1000 µM (Na-Pi cotransporter [1]; [6]) was 63.7% and the inhibition at 5000 µM (Na-Pi cotransporter [1]; [7]) was 88.2%. For the same compound, the “toxic effects on bone in general toxicity studies” value [2] was “not toxic effects on bone”, the “equilibrium uptake of L-[3H]-proline at 120 minutes” value [3] was 43+1 pmoles/mg protein and the “32Pi-uptake 120 min” value (Na-Pi cotransporter [4]; 1 mM TPFA, control 551 ± 15) was 532 ± 19 pmoles Pi/mg protein/time. The “32Pi-uptake 20 sec” value (Na-Pi cotransporter [4]; 1 mM TPFA, control 768 ± 7) was 279 ± 4 pmoles Pi/mg protein/time, the “32Pi-uptake 20 sec” value (Na-Pi cotransporter [4]; 5 mM TPFA) was 107 ± 5 pmoles Pi/mg protein/time and the “32Pi-uptake 120 min” value (Na-Pi cotransporter [4]; 5 mM TPFA) was 549 ± 11 pmoles Pi/mg protein/time. The inhibition at 1000 µM (Na-Pi cotransporter [4]; [6]) was 63.7%, the inhibition at 5000 µM (Na-Pi cotransporter [4]; [7]) was 86.1% and the “effect on BaLM enzyme (Na-K)ATPase” value ((Na-K)ATPase) was “without inhibitory effect”. The “uptake of D-[3H]-glucose at 120 minutes” value [5] was 65±12 pmoles/mg protein.
